From US10611777B2, “Imidazopyridazine compounds and their use” (HUTCHISON MEDIPHARMA LIMITED, priority 2014, dated 2020)

Legend:
Assay type in all cases: biochemical
PI3K-γ (p110γ) = PI3K-γ (p110γ) (Homo sapiens (Human), UniProt P48736); assay: Fluorescent determination of PI3K enzyme activity (Transcreener KINASE Assay), PI3K-γ; conditions: for PI3K-γ IH%: inhibition rate at 1 μM;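 for all read-outs here: p110γ enzyme reaction for 80 min at room temperature, ADP formed measured by far-red competitive fluorescence polarization immunoassay, inhibition relative to wells with 2% DMSO only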
PI3K-γ (p110γ), sequence (P48736 whole entry, species assumed): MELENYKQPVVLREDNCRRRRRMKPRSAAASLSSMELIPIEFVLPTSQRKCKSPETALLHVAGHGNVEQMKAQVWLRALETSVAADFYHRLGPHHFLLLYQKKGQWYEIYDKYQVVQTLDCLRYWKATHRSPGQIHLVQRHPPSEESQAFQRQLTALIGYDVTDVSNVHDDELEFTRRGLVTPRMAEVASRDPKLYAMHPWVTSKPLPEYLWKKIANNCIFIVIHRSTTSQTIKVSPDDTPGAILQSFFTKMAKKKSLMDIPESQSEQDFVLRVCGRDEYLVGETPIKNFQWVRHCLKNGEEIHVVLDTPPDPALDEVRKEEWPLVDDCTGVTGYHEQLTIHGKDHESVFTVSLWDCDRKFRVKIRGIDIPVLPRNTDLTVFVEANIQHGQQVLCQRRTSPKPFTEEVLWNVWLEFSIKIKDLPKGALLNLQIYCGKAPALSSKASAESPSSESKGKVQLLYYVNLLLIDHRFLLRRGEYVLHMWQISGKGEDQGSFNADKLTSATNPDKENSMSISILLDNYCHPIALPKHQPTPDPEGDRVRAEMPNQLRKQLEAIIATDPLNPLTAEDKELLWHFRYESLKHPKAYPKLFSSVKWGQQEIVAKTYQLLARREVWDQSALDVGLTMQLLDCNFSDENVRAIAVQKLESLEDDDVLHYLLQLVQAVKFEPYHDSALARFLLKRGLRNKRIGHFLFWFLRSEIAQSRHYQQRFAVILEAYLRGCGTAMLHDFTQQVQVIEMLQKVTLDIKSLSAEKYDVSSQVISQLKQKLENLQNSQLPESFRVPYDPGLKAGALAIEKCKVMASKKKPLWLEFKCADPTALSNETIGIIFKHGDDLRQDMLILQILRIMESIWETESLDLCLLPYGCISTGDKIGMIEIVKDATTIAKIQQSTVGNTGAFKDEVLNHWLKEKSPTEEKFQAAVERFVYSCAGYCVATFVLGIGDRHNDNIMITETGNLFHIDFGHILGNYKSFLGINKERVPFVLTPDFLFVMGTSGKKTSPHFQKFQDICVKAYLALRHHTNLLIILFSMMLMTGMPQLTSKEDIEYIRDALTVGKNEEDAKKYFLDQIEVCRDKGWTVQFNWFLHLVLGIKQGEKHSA
Procedure: (§1) PI3K kinases including p110α/p85α and p110γ were purchased from Invitrogen, p110δ/p85α and p110β/p85α were from Millipore.
(§2) It is a universal, homogenous, high throughput screening (HTS) technology using a far-red, competitive fluorescence polarization immunoassay based on the defection of ADP to monitor the activity of enzymes that catalyze group transfer reactions. […] The reaction mixture was added into desired wells of a 96-well plate. The plate was sealed and incubated for 80 min at room temperature. • 2) Next, 25 uL ADP detection mix was added into each well. The plate was sealed again and incubated for 60 min at room temperature. Then fluorescence polarization was measured by Tecan Infinite F500 Reader.
(§3) Data was analyzed and IC50 values were generated using the add-in software for Microsoft Excel, Xlfit™ (version 5.3).
(§4) Inhibition rates were calculated as follow: IH %=(ADP amount under 2% DMSO well−ADP amount under test compound well)/ADP amount under 2% DMSO well×100%.

PI3K-β (p110β/p85α) = PI3K-β (p110β/p85α) (Homo sapiens (Human), UniProt P42338); assay: Fluorescent determination of PI3K enzyme activity (Transcreener KINASE Assay), PI3K-β; conditions: for PI3K-β IH%: inhibition rate at 1 μM;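 for all read-outs here: Far-red fluorescence polarization immunoassay detecting ADP produced by the kinase, 80 min enzyme reaction at room temperature, inhibition relative to ADP formed in 2% DMSO control wells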
PI3K-β (p110β/p85α), sequence (P42338 whole entry, species assumed): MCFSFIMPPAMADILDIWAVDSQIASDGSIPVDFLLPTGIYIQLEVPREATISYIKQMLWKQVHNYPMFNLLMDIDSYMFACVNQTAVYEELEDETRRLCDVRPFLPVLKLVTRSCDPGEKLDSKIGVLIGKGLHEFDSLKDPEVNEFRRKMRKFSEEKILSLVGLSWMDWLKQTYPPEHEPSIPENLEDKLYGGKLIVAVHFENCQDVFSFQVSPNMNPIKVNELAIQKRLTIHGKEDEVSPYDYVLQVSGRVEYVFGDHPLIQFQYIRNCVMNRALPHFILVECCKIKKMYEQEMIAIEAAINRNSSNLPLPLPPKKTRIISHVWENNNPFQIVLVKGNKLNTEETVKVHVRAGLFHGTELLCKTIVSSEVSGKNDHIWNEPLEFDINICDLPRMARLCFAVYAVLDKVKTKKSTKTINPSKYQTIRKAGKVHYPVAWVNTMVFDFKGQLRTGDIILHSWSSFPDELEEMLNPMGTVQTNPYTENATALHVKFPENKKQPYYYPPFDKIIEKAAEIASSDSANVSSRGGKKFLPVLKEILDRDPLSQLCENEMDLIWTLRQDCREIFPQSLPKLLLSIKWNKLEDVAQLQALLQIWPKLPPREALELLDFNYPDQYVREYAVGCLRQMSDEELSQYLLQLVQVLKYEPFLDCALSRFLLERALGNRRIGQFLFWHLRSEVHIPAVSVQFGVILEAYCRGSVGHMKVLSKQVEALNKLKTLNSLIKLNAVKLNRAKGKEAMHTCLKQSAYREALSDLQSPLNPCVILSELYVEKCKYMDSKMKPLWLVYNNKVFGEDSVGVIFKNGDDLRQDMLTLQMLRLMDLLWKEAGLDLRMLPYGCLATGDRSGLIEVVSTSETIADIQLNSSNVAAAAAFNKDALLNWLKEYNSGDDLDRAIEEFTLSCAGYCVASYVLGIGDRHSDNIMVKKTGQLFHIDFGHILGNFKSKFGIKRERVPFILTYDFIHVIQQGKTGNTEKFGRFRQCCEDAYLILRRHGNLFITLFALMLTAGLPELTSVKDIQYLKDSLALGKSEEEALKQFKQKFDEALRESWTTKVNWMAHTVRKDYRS
PI3K-β (p110β/p85α), sequence (P27986 whole entry partner, species assumed): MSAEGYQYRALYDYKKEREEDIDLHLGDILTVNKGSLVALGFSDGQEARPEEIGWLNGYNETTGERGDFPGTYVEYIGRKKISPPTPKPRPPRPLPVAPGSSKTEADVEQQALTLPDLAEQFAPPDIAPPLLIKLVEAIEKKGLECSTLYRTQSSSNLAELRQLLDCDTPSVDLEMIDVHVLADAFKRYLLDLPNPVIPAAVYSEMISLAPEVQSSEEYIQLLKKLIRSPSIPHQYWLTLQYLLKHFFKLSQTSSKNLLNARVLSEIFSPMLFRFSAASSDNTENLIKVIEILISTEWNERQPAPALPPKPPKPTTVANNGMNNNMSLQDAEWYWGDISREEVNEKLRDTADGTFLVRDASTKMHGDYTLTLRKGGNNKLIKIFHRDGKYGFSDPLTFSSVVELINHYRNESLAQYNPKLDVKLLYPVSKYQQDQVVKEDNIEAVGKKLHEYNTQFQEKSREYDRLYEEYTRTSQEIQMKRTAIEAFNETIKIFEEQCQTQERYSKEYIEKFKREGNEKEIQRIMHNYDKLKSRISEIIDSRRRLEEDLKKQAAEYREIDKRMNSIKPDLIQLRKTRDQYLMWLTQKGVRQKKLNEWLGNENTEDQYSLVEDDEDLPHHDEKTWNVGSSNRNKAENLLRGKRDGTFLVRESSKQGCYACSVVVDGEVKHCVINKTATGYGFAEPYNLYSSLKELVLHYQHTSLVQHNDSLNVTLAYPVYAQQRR
Procedure: as §1, §2, §3, §4

PI3K-δ (p110δ/p85α) = PI3K-δ (p110δ/p85α) (Homo sapiens (Human), UniProt O00329); assay: Fluorescent determination of PI3K enzyme activity (Transcreener KINASE Assay), PI3K-δ; conditions: for PI3K-δ IH%: inhibition rate at 1 μM
PI3K-δ (p110δ/p85α), sequence (O00329 whole entry, species assumed): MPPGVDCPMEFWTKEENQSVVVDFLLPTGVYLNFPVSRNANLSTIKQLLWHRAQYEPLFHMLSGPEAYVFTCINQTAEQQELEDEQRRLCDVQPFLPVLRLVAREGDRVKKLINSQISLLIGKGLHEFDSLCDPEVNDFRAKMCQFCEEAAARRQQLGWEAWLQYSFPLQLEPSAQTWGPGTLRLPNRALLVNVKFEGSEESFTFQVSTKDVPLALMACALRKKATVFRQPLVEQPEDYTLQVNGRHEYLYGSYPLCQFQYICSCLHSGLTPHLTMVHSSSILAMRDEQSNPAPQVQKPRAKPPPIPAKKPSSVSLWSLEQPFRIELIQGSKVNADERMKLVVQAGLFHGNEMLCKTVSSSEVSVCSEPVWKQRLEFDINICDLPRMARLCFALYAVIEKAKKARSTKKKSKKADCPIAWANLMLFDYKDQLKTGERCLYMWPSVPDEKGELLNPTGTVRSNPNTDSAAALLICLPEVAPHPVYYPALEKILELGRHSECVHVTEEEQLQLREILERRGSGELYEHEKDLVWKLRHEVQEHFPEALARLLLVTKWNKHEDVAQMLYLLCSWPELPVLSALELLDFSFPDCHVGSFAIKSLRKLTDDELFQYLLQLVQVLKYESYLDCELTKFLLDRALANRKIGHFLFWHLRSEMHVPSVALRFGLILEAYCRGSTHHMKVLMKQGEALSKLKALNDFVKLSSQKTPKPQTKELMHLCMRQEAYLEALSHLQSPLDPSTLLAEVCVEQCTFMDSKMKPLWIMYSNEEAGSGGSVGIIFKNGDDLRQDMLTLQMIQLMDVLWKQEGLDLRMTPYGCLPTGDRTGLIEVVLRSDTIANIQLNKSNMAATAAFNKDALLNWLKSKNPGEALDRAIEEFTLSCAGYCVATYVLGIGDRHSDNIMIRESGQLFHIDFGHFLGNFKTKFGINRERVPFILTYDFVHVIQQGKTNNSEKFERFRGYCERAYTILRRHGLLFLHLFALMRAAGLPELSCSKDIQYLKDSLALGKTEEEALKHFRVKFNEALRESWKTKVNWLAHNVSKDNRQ
PI3K-δ (p110δ/p85α), sequence (P27986 whole entry partner, species assumed): as the sequence (P27986 whole entry partner, species assumed) above
Procedure: as §1, §2, §3, §4

SMILES: CC(Nc1ncnc2[nH]cc(C#N)c12)c1cc2ncc(Cl)n2nc1-c1ccccc1 (single isomer, unassigned) [Compound 9]
- PI3K-γ IH% (PI3K-γ (p110γ)): −1.4%

SMILES: CC(Nc1ncnc2[nH]cnc12)c1cc2ncc(Cl)n2nc1-c1ccccc1 (single isomer, unassigned) [Compound 11]
- PI3K-β IH% (PI3K-β (p110β/p85α)): 55.7%

SMILES: CCC(Nc1ncnc2[nH]cnc12)c1cc2ncc(Cl)n2nc1-c1ccccc1F (single isomer, unassigned) [Compound 25]
- IC50 (PI3K-δ (p110δ/p85α)): 4 nM
- IC50 (PI3K-γ (p110γ)): 2590 nM

SMILES: CCC(Nc1ncnc2[nH]cnc12)c1cc2ncc(Cl)n2nc1-c1ccccc1F (single isomer, unassigned) [Compound 26]
- IC50 (PI3K-δ (p110δ/p85α)): 839 nM

SMILES: C[C@H](Nc1ncnc(N)c1C#N)c1cc2ncc(Cl)n2nc1-c1cccc(C(C)(C)O)c1 (single isomer, unassigned) [Compound 79, (chiral)-4-amino-6-((1-(3-chloro-6-(3-(2-hydroxypropan-2-yl)phenyl)imidazo[1,2-b]pyridazin-7-yl)ethyl)amino)pyrimidine-5-carbonitrile]
- PI3K-γ IH% (PI3K-γ (p110γ)): 56.2%
- PI3K-β IH% (PI3K-β (p110β/p85α)): 43.8%

SMILES: CC(Nc1ncnc(N)c1C#N)c1cc2nccn2nc1-c1ccccc1 (centres unmarked) [Compound 1, 4-amino-6-((1-(6-phenylimidazo[1,2-b]pyridazin-7-yl)ethyl)amino)pyrimidine-5-carbonitrile]
- PI3K-γ IH% (PI3K-γ (p110γ)): 16.1%
- PI3K-β IH% (PI3K-β (p110β/p85α)): 28.1%

SMILES: C[C@@H](Nc1ncnc(N)c1C#N)c1cc2ncc(Cl)n2nc1-c1ccccc1 [Compound 3, (R)-4-amino-6-((1-(3-chloro-6-phenylimidazo[1,2-b]pyridazin-7-yl)ethyl)amino)pyrimidine-5-carbonitrile]
- PI3K-γ IH% (PI3K-γ (p110γ)): 6.9%

SMILES: CC[C@@H](Nc1ncnc(N)c1C#N)c1cc2ncc(Cl)n2nc1-c1ccccc1 [Compound 5, (R)-4-amino-6-((1-(3-chloro-6-phenylimidazo[1,2-b]pyridazin-7-yl)propyl)amino)pyrimidine-5-carbonitrile]
- PI3K-δ IH% (PI3K-δ (p110δ/p85α)): 47.3%
- PI3K-β IH% (PI3K-β (p110β/p85α)): −10.7%

SMILES: CC[C@H](Nc1ncnc(N)c1C#N)c1cc2ncc(Cl)n2nc1-c1ccccc1 [Compound 6, (S)-4-amino-6-((1-(3-chloro-6-phenylimidazo[1,2-b]pyridazin-7-yl)propyl)amino)pyrimidine-5-carbonitrile]
- PI3K-γ IH% (PI3K-γ (p110γ)): 4.1%

SMILES: C[C@@H](Nc1ncnc(N)c1C#N)c1cc2ncc(Cl)n2nc1-c1ccccn1 [Compound 7, (R)-4-amino-6-((1-(3-chloro-6-(pyridin-2-yl)imidazo[1,2-b]pyridazin-7-yl)ethyl)amino)pyrimidine-5-carbonitrile]
- PI3K-δ IH% (PI3K-δ (p110δ/p85α)): 12.5%
- PI3K-γ IH% (PI3K-γ (p110γ)): 61.1%
- PI3K-β IH% (PI3K-β (p110β/p85α)): −2.7%

SMILES: C[C@H](Nc1ncnc(N)c1C#N)c1cc2ncc(Cl)n2nc1-c1ccccn1 [Compound 8, (S)-4-amino-6-((1-(3-chloro-6-(pyridin-2-yl)imidazo[1,2-b]pyridazin-7-yl)ethyl)amino)pyrimidine-5-carbonitrile]
- PI3K-γ IH% (PI3K-γ (p110γ)): −2.3%
- PI3K-β IH% (PI3K-β (p110β/p85α)): 37.7%

SMILES: CCC(Nc1ncnc2[nH]cnc12)c1cc2ncc(Cl)n2nc1-c1ccccc1 (centres unmarked) [Compound 14]
- PI3K-δ IH% (PI3K-δ (p110δ/p85α)): 51.0%
- PI3K-γ IH% (PI3K-γ (p110γ)): 22.5%
- PI3K-β IH% (PI3K-β (p110β/p85α)): 3.2%

SMILES: C[C@H](Nc1ncnc(N)c1C#N)c1cc2ncc(Cl)n2nc1-c1cccc(F)c1 [Compound 15]
- PI3K-β IH% (PI3K-β (p110β/p85α)): 59%

SMILES: C[C@H](Nc1ncnc2[nH]cnc12)c1cc2ncc(Cl)n2nc1-c1cccc(F)c1 [Compound 16]
- PI3K-β IH% (PI3K-β (p110β/p85α)): 27.5%

SMILES: C[C@H](Nc1ncnc2[nH]ccc12)c1cc2ncc(Cl)n2nc1-c1ccccc1 [Compound 17]
- PI3K-γ IH% (PI3K-γ (p110γ)): 61.2%
- PI3K-β IH% (PI3K-β (p110β/p85α)): 15.8%

SMILES: CCC(Nc1ncnc2[nH]cnc12)c1cc2ncc(Cl)n2nc1-c1ccccc1 (centres unmarked) [Compound 18]
- PI3K-β IH% (PI3K-β (p110β/p85α)): 42%

SMILES: C[C@@H](c1cc2ncc(Cl)n2nc1-c1ccccc1)n1cnc2c(N)ncnc21 [Compound 20, (S)-9-(1-(3-chloro-6-phenylimidazo[1,2-b]pyridazin-7-yl)ethyl)-9H-purin-6-amine]
- PI3K-γ IH% (PI3K-γ (p110γ)): 43.1%
- PI3K-β IH% (PI3K-β (p110β/p85α)): 17.4%

SMILES: CCC(Nc1ncnc(N)c1C#N)c1cc2ncc(Cl)n2nc1-c1cccc(F)c1 (centres unmarked) [Compound 24]
- PI3K-γ IH% (PI3K-γ (p110γ)): 44.5%
- PI3K-β IH% (PI3K-β (p110β/p85α)): 46.6%

SMILES: CCC(Nc1ncnc2[nH]cnc12)c1cc2ncc(Cl)n2nc1-c1ccccc1F (centres unmarked) [Compound 25]
- PI3K-β IH% (PI3K-β (p110β/p85α)): 22.8%

SMILES: CCC(Nc1ncnc2[nH]cnc12)c1cc2ncc(Cl)n2nc1-c1ccccc1F (centres unmarked) [Compound 26]
- PI3K-γ IH% (PI3K-γ (p110γ)): 8%
- PI3K-β IH% (PI3K-β (p110β/p85α)): −7.5%

SMILES: C[C@@H](c1cc2ncc(Cl)n2nc1-c1ccccc1)n1ccc2c(N)ncnc21 [Compound 27, (S)-7-(1-(3-chloro-6-phenylimidazo[1,2-b]pyridazin-7-yl)ethyl)-7H-pyrrolo[2,3-d]pyrimidin-4-amine]
- PI3K-γ IH% (PI3K-γ (p110γ)): 24.9%
- PI3K-β IH% (PI3K-β (p110β/p85α)): 9.5%

SMILES: CCC(Nc1ncnc(N)c1C#N)c1cc2ncc(Cl)n2nc1-c1ccccn1 (centres unmarked) [Compound 29]
- PI3K-γ IH% (PI3K-γ (p110γ)): 35%

SMILES: Cc1nc(N)c(C#N)c(N[C@@H](C)c2cc3ncc(Cl)n3nc2-c2ccccc2)n1 [Compound 32]
- PI3K-β IH% (PI3K-β (p110β/p85α)): 23.8%

SMILES: CNc1ncnc(N[C@@H](C)c2cc3ncc(Cl)n3nc2-c2ccccc2)c1C#N [Compound 33, (S)-4-((1-(3-chloro-6-phenylimidazo[1,2-b]pyridazin-7-yl)ethyl)amino)-6-(methylamino)pyrimidine-5-carbonitrile]
- PI3K-γ IH% (PI3K-γ (p110γ)): −6.9%
- PI3K-β IH% (PI3K-β (p110β/p85α)): 2.2%

SMILES: C[C@H](Nc1ncnc(N)c1C#N)c1cc2ncc(Cl)n2nc1-c1cc(F)ccc1F [Compound 35]
- PI3K-γ IH% (PI3K-γ (p110γ)): 64.6%
- PI3K-β IH% (PI3K-β (p110β/p85α)): 67.6%

SMILES: C[C@H](Nc1ncnc(N)c1-c1cccc(F)c1)c1cc2ncc(Cl)n2nc1-c1ccccc1 [Compound 37, (S)-N^4-(1-(3-chloro-6-phenylimidazo[1,2-b]pyridazin-7-yl)ethyl)-5-(3-fluorophenyl)pyrimidine-4,6-diamine]
- PI3K-γ IH% (PI3K-γ (p110γ)): 27.5%
- PI3K-β IH% (PI3K-β (p110β/p85α)): −0.4%

SMILES: C[C@H](Nc1ncnc(N)c1-c1ccc(O)c(F)c1)c1cc2ncc(Cl)n2nc1-c1ccccc1 [Compound 38]
- PI3K-γ IH% (PI3K-γ (p110γ)): 54.3%
- PI3K-β IH% (PI3K-β (p110β/p85α)): −2.2%

SMILES: COc1ccc(-c2c(N)ncnc2N[C@@H](C)c2cc3ncc(Cl)n3nc2-c2ccccc2)cn1 [Compound 39]
- PI3K-γ IH% (PI3K-γ (p110γ)): 28.1%
- PI3K-β IH% (PI3K-β (p110β/p85α)): −4.4%

SMILES: C[C@@H](c1cc2ncc(Cl)n2nc1-c1ccccc1)N(C)c1ncnc(N)c1C#N [Compound 42, (S)-4-amino-6-((1-(3-chloro-6-phenylimidazo[1,2-b]pyridazin-7-yl)ethyl)(methyl)amino)pyrimidine-5-carbonitrile]
- PI3K-γ IH% (PI3K-γ (p110γ)): 18.2%
- PI3K-β IH% (PI3K-β (p110β/p85α)): 7.4%

SMILES: CC[C@@H](Nc1ncnc(N)c1C#N)c1cc2ncc(Cl)n2nc1-c1cccc(F)c1 [Compound 43, (R)-4-amino-6-((1-(3-chloro-6-(3-fluorophenyl)imidazo[1,2-b]pyridazin-7-yl)propyl)amino)pyrimidine-5-carbonitrile]
- PI3K-γ IH% (PI3K-γ (p110γ)): 27.2%
- PI3K-β IH% (PI3K-β (p110β/p85α)): 23.6%

SMILES: CC[C@@H](Nc1ncnc2[nH]cnc12)c1cc2ncc(Cl)n2nc1-c1cccc(F)c1 [Compound 44]
- PI3K-γ IH% (PI3K-γ (p110γ)): 36.0%
- PI3K-β IH% (PI3K-β (p110β/p85α)): 18.8%

SMILES: CC[C@H](Nc1ncnc2[nH]cnc12)c1cc2ncc(Cl)n2nc1-c1cccc(F)c1 [Compound 47]
- PI3K-γ IH% (PI3K-γ (p110γ)): 55.2%
- PI3K-β IH% (PI3K-β (p110β/p85α)): 32.2%

SMILES: C[C@H](Nc1nc[n+]([O-])c(N)c1C#N)c1cc2ncc(Cl)n2nc1-c1ccccc1 [Compound 51, (S)-6-amino-4-((1-(3-chloro-6-phenylimidazo[1,2-b]pyridazin-7-yl)ethyl)amino)-5-cyanopyrimidine 1-oxide]
- PI3K-γ IH% (PI3K-γ (p110γ)): 36.7%
- PI3K-β IH% (PI3K-β (p110β/p85α)): −15.5%

SMILES: C[C@H](Nc1ncnc(N)c1C(=O)O)c1cc2ncc(Cl)n2nc1-c1ccccc1 [Compound 52, (S)-4-amino-6-((1-(3-chloro-6-phenylimidazo[1,2-b]pyridazin-7-yl)ethyl)amino)pyrimidine-5-carboxylic acid]
- PI3K-γ IH% (PI3K-γ (p110γ)): −26.1%
- PI3K-β IH% (PI3K-β (p110β/p85α)): −6.3%

SMILES: C[C@H](Nc1ncnc(N)c1C(N)=O)c1cc2ncc(Cl)n2nc1-c1ccccc1 [Compound 53, (S)-4-amino-6-((1-(3-chloro-6-phenylimidazo[1,2-b]pyridazin-7-yl)ethyl)amino)pyrimidine-5-carboxamide]
- PI3K-γ IH% (PI3K-γ (p110γ)): 34.3%
- PI3K-β IH% (PI3K-β (p110β/p85α)): 30.5%

SMILES: C[C@H](Nc1ncnc(N)c1-c1cnn(C)c1)c1cc2ncc(Cl)n2nc1-c1ccccc1 [Compound 57]
- PI3K-γ IH% (PI3K-γ (p110γ)): 30.3%
- PI3K-β IH% (PI3K-β (p110β/p85α)): 6.3%

SMILES: Cc1cn2nc(-c3ccccc3)c([C@H](C)Nc3ncnc(N)c3C#N)cc2n1 [Compound 58]
- PI3K-γ IH% (PI3K-γ (p110γ)): 20.2%
- PI3K-β IH% (PI3K-β (p110β/p85α)): 20.5%

SMILES: C[C@H](Nc1ncnc(N)c1C#N)c1cc2ncc(Cl)n2nc1-c1ccc2cccnc2c1 [Compound 61]
- PI3K-γ IH% (PI3K-γ (p110γ)): 26.5%
- PI3K-β IH% (PI3K-β (p110β/p85α)): 24.4%

SMILES: C[C@H](Nc1ncnc(N)c1C#N)c1cc2ncc(Cl)n2nc1-c1ccc(F)c(F)c1 [Compound 63]
- PI3K-β IH% (PI3K-β (p110β/p85α)): 48.1%

SMILES: C[C@H](Nc1ncnc(N)c1C#N)c1cc2ncc(Cl)n2nc1-c1ccc(Cl)c(F)c1 [Compound 64]
- PI3K-β IH% (PI3K-β (p110β/p85α)): 44.1%

SMILES: C[C@H](Nc1ncnc(N)c1C#N)c1cc2ncc(Cl)n2nc1-c1ccccc1O [Compound 69, (S)-4-amino-6-((1-(3-chloro-6-(2-hydroxyphenyl)imidazo[1,2-b]pyridazin-7-yl)ethyl)amino)pyrimidine-5-carbonitrile]
- IC50 (PI3K-β (p110β/p85α)): 133 nM

SMILES: C[C@H](Nc1ncnc(N)c1C#N)c1cc2ncc(Cl)n2nc1-c1ccc2ccccc2c1 [Compound 71]
- PI3K-γ IH% (PI3K-γ (p110γ)): 32.6%
- PI3K-β IH% (PI3K-β (p110β/p85α)): 35.2%

SMILES: C[C@H](Nc1ncnc(N)c1C#N)c1cc2ncc(Cl)n2nc1-c1ccncc1 [Compound 73]
- PI3K-γ IH% (PI3K-γ (p110γ)): 62.8%
- PI3K-β IH% (PI3K-β (p110β/p85α)): 60.8%

SMILES: C[C@H](Nc1ncnc(N)c1C#N)c1cc2ncc(Cl)n2nc1-c1ccc2scnc2c1 [Compound 74]
- PI3K-γ IH% (PI3K-γ (p110γ)): 40.8%
- PI3K-β IH% (PI3K-β (p110β/p85α)): 49.4%

SMILES: Cc1noc(-c2c(N)ncnc2N[C@@H](C)c2cc3ncc(Cl)n3nc2-c2ccccc2)n1 [Compound 82, (S)-N^4-(1-(3-chloro-6-phenylimidazo[1,2-b]pyridazin-7-yl)ethyl)-5-(3-methyl-1,2,4-oxadiazol-5-yl)pyrimidine-4,6-diamine]
- PI3K-β IH% (PI3K-β (p110β/p85α)): 55.2%
